This passage reports Ki and Ratio Ki results from ChEMBL document CHEMBL1141652 (J Med Chem, 2008).

In experiment [1] the target is Disintegrin and metalloproteinase domain-containing protein 17 (Homo sapiens, UniProt P78536).
Description: Inhibition of human recombinant TACE
Experiment [2] in a line: Selectivity for human recombinant TACE over MMP7.
The nature of experiment [3]: Selectivity for human recombinant TACE over MMP14.
The nature of experiment [4]: Selectivity for human recombinant TACE over MMP2.
A short description of experiment [5]: Selectivity for human recombinant TACE over MMP3.
The nature of experiment [6]: Selectivity for human recombinant TACE over MMP1.
Experiment [7] in a line: Selectivity for human recombinant TACE over BMP1.
Experiment [8] in a line: Selectivity for human recombinant TACE over ADAM10.

Disintegrin and metalloproteinase domain-containing protein 17, sequence (P78536 whole entry, the tested form may be a part): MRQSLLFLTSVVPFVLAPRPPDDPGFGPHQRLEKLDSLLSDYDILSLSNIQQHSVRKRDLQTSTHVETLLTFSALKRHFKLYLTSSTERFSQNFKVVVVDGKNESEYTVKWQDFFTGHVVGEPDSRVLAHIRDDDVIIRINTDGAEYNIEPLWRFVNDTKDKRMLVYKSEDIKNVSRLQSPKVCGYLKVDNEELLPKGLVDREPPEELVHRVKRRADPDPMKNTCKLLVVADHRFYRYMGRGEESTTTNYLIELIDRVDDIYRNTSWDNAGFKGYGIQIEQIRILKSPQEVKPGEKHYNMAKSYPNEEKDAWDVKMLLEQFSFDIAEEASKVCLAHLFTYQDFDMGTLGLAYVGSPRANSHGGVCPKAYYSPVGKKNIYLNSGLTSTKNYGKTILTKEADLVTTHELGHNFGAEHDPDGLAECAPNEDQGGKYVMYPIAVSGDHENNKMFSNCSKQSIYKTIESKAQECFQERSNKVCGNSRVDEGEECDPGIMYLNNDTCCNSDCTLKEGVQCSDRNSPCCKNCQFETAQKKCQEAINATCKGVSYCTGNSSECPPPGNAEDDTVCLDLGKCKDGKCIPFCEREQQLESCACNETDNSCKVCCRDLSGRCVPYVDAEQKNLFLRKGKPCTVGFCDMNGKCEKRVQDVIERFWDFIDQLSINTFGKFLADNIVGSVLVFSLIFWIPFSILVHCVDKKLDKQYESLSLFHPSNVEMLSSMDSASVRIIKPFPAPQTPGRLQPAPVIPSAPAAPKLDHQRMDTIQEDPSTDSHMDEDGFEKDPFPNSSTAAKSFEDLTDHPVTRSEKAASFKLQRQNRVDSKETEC

For orientation: Ki means a measure of affinity in units of concentration, obtained from inhibition or displacement. Higher therefore signals a looser hold on the target. With `CCOC(=O)[C@@]1(Cc2ccc(Oc3ccccc3)cc2)C[C@@H]1C(=O)NO`, the Ki in experiment [1] is 3100 nM.

`COC(=O)C1(c2cccc(OCc3ccccc3)c2)CC1C(=O)NO` (racemic) had an inhibitory constant (Ki) in experiment [1] of 500 nM. Take `COC(=O)[C@@]1(Cc2ccc(OCCc3ccc4ccccc4c3)cc2)C[C@@H]1C(=O)NO`: in experiment [1], the Ki was above 100000 nM. On the same count and under the same terms, the same measure for `COC(=O)[C@]1(c2cccc(OCc3ccc4ccccc4c3)c2)C[C@H]1C(=O)NO`: 3000 nM.

Compound `Cc1cc(COc2cccc([C@@]3(C(=O)OC(C)C)C[C@H]3C(=O)NO)c2)c2ccccc2n1` came in with a Ki in experiment [1] of 8 nM. The Ratio Ki in experiment [2] amounted to 12400; in experiment [3], 3000; in experiment [4], 1400; in experiment [5], 1500; in experiment [6], 7400; in experiment [7], 800. Further, the Ratio Ki in experiment [8] stood at 4. In experiment [1], `CNC(=O)[C@@]1(Cc2ccc(OCc3cc(C)nc4ccccc34)cc2)C[C@@H]1C(=O)NO` showed an inhibitory constant (Ki) of 14 nM. Still for that read-out and setting: in the case of `Cc1cc(COc2cccc([C@@]3(C(=O)Nc4ccccc4)C[C@H]3C(=O)NO)c2)c2ccccc2n1` it was 11 nM; in that of `CCOC(=O)C1(c2ccc(OCc3ccccc3)cc2)CC1C(=O)NO` (racemic), 20000 nM; in that of `COC(=O)C1(Cc2cccc(OCc3ccccc3)c2)CC1C(=O)NO` (racemic), 4000 nM. Compound `COC(=O)[C@]1(c2cccc(OCc3ccc(Cl)c(Cl)c3)c2)C[C@H]1C(=O)NO` had a Ki in experiment [1] of 11 nM. For the same compound, the Ratio Ki in experiment [2] came to 5400; in experiment [3] it was 2400; in experiment [4] it was 2800; in experiment [5], 600; in experiment [6], 6800; in experiment [7] it was 400. Further, the Ratio Ki in experiment [8] came out at 10. Compound `Cc1cc(COc2ccc(C[C@]3(C(=O)N(C)C)C[C@@H]3C(=O)NO)cc2)c2ccccc2n1` came in with a Ki in experiment [1] of 1 nM. This lies in the single-digit nanomolar range.

Compound `NC(=O)C1(Cc2ccc(OCc3ccccc3)cc2)CC1C(=O)NO` (racemic) displayed an inhibitory constant (Ki) in experiment [1] of 360 nM. Still for that read-out and setting: the same measure for `COC(=O)[C@]1(c2cccc(Oc3ccccc3C)c2)C[C@H]1C(=O)NO`: 240 nM.

On to `COC(=O)[C@]1(c2cccc(OCc3ccc(C(F)(F)F)cc3)c2)C[C@H]1C(=O)NO`, for which the affinity in experiment [1], expressed as Ki, was 18 nM. The Ratio Ki in experiment [2] is above 600; in experiment [3], 4000; in experiment [4], above 600; in experiment [5] it was 200; in experiment [6] it was 1800; in experiment [7], 700. Further, in experiment [8], the Ratio Ki came out at 8.

On to `COC(=O)[C@@]1(Cc2ccc(OCc3ccccc3)cc2)C[C@@H]1C(=O)NO` (racemic), for which the inhibition constant (Ki) in experiment [1] came out at 800 nM. That is a sub-micromolar value. On the same count and under the same terms, in the case of `Cc1cc(COc2cccc([C@@]3(C(=O)N(C)C)C[C@H]3C(=O)NO)c2)c2ccccc2n1` it was 2700 nM. On the same count and under the same terms, the same measure for `COC(=O)[C@]1(c2cccc(OCCc3ccc4ccccc4c3)c2)C[C@H]1C(=O)NO`: 60 nM; for `COC(=O)[C@@]1(Cc2ccc(OCCc3cccc4ccccc34)cc2)C[C@@H]1C(=O)NO`: above 100000 nM; for `COC(=O)[C@@]1(Cc2ccc(OCc3ccccc3Cl)cc2)C[C@@H]1C(=O)NO`: 260 nM. As for `Cc1cc(COc2cccc([C@@]3(C(=O)NC4CCCCC4)C[C@H]3C(=O)NO)c2)c2ccccc2n1`, affinity in experiment [1] was put at a Ki of 9 nM. Same read-out and setting: the same measure for `COC(=O)[C@]1(c2cccc(OCC3CCCCC3)c2)C[C@H]1C(=O)NO`: 900 nM; for `COC(=O)[C@]1(c2cccc(OCc3cccc(F)c3)c2)C[C@H]1C(=O)NO`: 80 nM. Same read-out and setting: in the case of `COC(=O)[C@]1(c2cccc(OCc3cccc(OC)c3)c2)C[C@H]1C(=O)NO` it was 110 nM. The same measure, in the same setting: in the case of `COC(=O)[C@]1(c2cccc(OCc3cccc(C(F)(F)F)c3)c2)C[C@H]1C(=O)NO` it was 70 nM; in that of `COC(=O)[C@]1(c2cccc(OCCc3cccc4ccccc34)c2)C[C@H]1C(=O)NO`, 50 nM; in that of `COC(=O)[C@]1(c2cccc(Oc3ccc(C)cc3)c2)C[C@H]1C(=O)NO`, 140 nM.

`Cc1cc(COc2cccc([C@@]3(C(=O)N4CCN(C)CC4)C[C@H]3C(=O)NO)c2)c2ccccc2n1`: the affinity in experiment [1], expressed as Ki, was 5000 nM. Still for that read-out and setting: in the case of `CCOC(=O)[C@]1(c2cccc(OCc3cc(C)nc4ccccc34)c2)C[C@H]1C(=O)NO` it was 16 nM; in that of `COC(=O)[C@]1(c2cccc(OC)c2)C[C@H]1C(=O)NO`, 3000 nM; in that of `COC(=O)[C@]1(c2cccc(OCCc3ccccc3)c2)C[C@H]1C(=O)NO`, 290 nM. Same read-out and setting: in the case of `CNC(=O)[C@]1(c2cccc(OCc3cc(C)nc4ccccc34)c2)C[C@H]1C(=O)NO` it was 100 nM; in that of `COC(=O)[C@@]1(Cc2ccc(OCc3ccc(Cl)c(Cl)c3)cc2)C[C@@H]1C(=O)NO`, 130 nM; in that of `COC(=O)[C@]1(c2cccc(Oc3ccc4ccccc4c3)c2)C[C@H]1C(=O)NO`, 70 nM.

`CC#CCOc1cccc([C@@]2(C(=O)OC)C[C@H]2C(=O)NO)c1` returned a Ki in experiment [1] of 1600 nM. Take `Cc1cc(COc2cccc([C@@]3(C(=O)NCc4ccccc4)C[C@H]3C(=O)NO)c2)c2ccccc2n1`: the affinity in experiment [1], expressed as Ki, was 140 nM.

In turn, `COC(=O)[C@]1(c2cccc(Oc3ccccc3)c2)C[C@H]1C(=O)NO` registered a Ki in experiment [1] of 1100 nM. This Ki lies about 7.9-fold higher than the previous one.

`Cc1cc(COc2cccc([C@@]3(C(=O)N(C)Cc4ccccc4)C[C@H]3C(=O)NO)c2)c2ccccc2n1`: affinity in experiment [1] was put at a Ki of 3000 nM. This Ki is about 2.7-fold higher than that of the compound before. `CC#CCOc1ccc(C[C@]2(C(N)=O)C[C@@H]2C(=O)NO)cc1` had an inhibition constant Ki in experiment [1] of 80 nM. Compared with the last compound, the Ki is about 38-fold lower. Same read-out and setting: in the case of `COC(=O)[C@@]1(Cc2ccc(OCC3CCCCC3)cc2)C[C@@H]1C(=O)NO` it was 26000 nM; in that of `CC#CCOc1ccc(C[C@]2(C(=O)OC)C[C@@H]2C(=O)NO)cc1`, 420 nM; in that of `NC(=O)C1(c2cccc(OCc3ccccc3)c2)CC1C(=O)NO` (stereo not given), 1200 nM. Still for that read-out and setting: the same measure for `COC(=O)[C@]1(c2cccc(OCc3ccc(Cl)cc3)c2)C[C@H]1C(=O)NO`: 50 nM; for `Cc1cc(COc2cccc([C@@]3(C(N)=O)C[C@H]3C(=O)NO)c2)c2ccccc2n1` (relative stereo): 700 nM. In experiment [1], `COC(=O)C1(Cc2ccc(OCc3ccccc3)cc2)CC1C(=O)NO` (racemic) registered an inhibition constant Ki of 800 nM.
